Key:
[1] = system: solid tumors with PIK3CA mutations with or without PTEN loss; conditions: human, in vivo
Excerpt: The primary objective of the study is to evaluate the safety, feasibility, and pharmacokinetic impact of intrasubject modulated dosing for serabelisib when co-administered with a study ISD in a pilot cohort of subjects with solid tumors with PIK3CA mutations with or without PTEN loss. […] For the expansion cohort, nab-paclitaxel will also be administered with serabelisib when co-administered with a study ISD. […] FIG. 4 depicts a representation of the study cohorts of the clinical trial using serabelisib in combination with an insulin suppressing diet and nab-paclitaxel in subjects with cancer.
Cohort 1a (Dose Modification): The primary objective of the study is to evaluate the safety, compliance, and pharmacokinetic (PK) impact of intrasubject modulated dosing for serabelisib in combination with a Study ISD in a pilot cohort. […] Endpoints include: ORR, defined as the proportion of subjects who have best overall response of either CR or PR, as determined by each site; Progression free survival (PFS), defined as the time from date of first dose of Study Drug (Visit 1) to the date of first evidence of disease progression or death from any cause (whichever occurs first); Overall survival (OS) and landmark survival; Duration of response (DoR); and Disease control rate (DCR; CR+PR+stable disease [SD]). […]

[2] = system: other class I PI3K isoforms; conditions: relative to PI3Kα
[3] = biological target: mammalian target of rapamycin (mTOR) (Homo sapiens, UniProt P42345); conditions: relative to PI3Kα
PI3Kα = PI3Kα (Homo sapiens, UniProt P42336); conditions: biochemical assays; read-out: half maximal inhibitory concentration (IC50); cited from earlier work
[4] = system: downstream signaling of PI3K; conditions: cell lines with hyperactivation of the pathway; cited from earlier work
a range of cell lines = conditions: cited from earlier work
[5] = system: human breast cancer cells harboring mutations in the PIK3CA gene; conditions: mouse xenograft, PIK3CA-mutated human breast cancer cells; cited from earlier work
[6] = system: renal cell carcinoma xenograft with mutations in the PTEN gene; conditions: cited from earlier work
[7] = cited from earlier work
[8] = in vitro metabolism, across test species; cited from earlier work
CYP3A4 = CYP3A4 (Homo sapiens, UniProt P08684); conditions: normalized for liver content; cited from earlier work
Sequence of CYP3A4 (P08684 whole entry): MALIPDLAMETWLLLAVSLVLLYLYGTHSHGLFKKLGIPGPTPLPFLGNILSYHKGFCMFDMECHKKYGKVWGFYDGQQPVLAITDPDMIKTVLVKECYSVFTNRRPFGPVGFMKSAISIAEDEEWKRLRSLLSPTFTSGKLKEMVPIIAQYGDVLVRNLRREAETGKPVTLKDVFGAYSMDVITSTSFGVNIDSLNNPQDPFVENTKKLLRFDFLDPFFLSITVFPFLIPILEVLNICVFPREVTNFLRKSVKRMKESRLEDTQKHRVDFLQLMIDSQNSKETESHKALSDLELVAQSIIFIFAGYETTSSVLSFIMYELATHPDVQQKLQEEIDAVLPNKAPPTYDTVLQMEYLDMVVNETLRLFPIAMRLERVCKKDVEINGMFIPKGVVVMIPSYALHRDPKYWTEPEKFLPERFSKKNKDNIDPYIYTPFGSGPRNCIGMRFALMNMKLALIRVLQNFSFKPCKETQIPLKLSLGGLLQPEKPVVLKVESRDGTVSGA

CYP3A4/5 [9] = conditions: cited from earlier work
CYP2D6 = CYP2D6 (Homo sapiens, UniProt P10635); conditions: cited from earlier work
Sequence of CYP2D6 (P10635 whole entry): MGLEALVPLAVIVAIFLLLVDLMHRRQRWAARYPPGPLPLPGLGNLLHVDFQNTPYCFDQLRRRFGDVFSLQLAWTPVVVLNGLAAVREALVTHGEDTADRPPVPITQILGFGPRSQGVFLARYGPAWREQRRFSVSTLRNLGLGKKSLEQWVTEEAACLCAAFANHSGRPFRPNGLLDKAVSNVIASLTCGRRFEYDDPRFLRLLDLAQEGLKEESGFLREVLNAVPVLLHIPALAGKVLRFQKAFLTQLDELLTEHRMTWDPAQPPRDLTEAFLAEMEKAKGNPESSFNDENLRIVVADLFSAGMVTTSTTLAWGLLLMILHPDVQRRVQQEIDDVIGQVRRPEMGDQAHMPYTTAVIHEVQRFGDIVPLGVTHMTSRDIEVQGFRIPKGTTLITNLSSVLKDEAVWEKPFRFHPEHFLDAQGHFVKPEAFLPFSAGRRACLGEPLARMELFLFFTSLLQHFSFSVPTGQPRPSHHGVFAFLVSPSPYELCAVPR

CYP2C19 = CYP2C19 (Homo sapiens, UniProt P33261); conditions: cited from earlier work
Sequence of CYP2C19 (P33261 whole entry): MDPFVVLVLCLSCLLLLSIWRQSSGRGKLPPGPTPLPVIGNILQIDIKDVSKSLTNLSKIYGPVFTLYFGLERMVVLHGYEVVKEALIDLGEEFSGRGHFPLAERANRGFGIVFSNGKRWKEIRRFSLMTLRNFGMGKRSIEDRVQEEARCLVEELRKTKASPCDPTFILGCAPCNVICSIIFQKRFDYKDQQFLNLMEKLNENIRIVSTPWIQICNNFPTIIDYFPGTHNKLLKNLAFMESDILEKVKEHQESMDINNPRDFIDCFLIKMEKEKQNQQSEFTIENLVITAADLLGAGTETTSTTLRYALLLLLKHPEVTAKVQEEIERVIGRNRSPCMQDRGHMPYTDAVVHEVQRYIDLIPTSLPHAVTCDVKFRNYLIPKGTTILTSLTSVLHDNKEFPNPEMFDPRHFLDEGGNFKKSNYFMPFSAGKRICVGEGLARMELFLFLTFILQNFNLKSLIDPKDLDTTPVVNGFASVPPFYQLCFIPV

CYP2C9 = CYP2C9 (Homo sapiens, UniProt P11712); conditions: cited from earlier work
Sequence of CYP2C9 (P11712 whole entry): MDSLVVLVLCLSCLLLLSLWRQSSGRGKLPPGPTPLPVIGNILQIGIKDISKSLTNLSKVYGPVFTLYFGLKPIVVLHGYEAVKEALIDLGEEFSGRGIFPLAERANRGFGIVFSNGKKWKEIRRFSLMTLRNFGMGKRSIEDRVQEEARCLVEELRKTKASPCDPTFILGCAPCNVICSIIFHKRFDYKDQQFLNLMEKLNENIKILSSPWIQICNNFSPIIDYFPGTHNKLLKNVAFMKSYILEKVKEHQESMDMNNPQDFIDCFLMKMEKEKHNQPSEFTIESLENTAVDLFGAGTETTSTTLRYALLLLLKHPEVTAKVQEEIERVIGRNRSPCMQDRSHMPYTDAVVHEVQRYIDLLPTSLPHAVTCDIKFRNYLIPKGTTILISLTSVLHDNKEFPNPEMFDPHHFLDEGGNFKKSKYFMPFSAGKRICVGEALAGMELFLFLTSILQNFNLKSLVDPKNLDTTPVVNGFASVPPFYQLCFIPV

CYP2C8 = CYP2C8 (Homo sapiens, UniProt P10632); conditions: cited from earlier work
Sequence of CYP2C8 (P10632 whole entry): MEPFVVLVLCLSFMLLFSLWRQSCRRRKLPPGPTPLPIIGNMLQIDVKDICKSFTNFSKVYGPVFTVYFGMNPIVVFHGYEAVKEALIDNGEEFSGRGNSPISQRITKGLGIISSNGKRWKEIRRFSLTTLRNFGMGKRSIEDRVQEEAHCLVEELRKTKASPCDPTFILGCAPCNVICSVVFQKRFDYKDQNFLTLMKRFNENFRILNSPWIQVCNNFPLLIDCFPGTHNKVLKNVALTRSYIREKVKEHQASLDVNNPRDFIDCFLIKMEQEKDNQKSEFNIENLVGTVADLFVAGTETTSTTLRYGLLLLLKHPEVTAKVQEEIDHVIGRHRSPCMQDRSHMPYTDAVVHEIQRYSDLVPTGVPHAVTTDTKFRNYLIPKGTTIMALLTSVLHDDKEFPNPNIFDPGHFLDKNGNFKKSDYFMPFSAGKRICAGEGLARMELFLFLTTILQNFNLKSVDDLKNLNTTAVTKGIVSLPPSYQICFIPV

CYP2B6 [10] = biological target: CYP2B6 (Homo sapiens, UniProt P20813); conditions: cited from earlier work
CYP1A2 [11] = biological target: CYP1A2 (Homo sapiens, UniProt P05177); conditions: cited from earlier work
Sequence of CYP1A2 (Homo sapiens, UniProt P05177) (P05177 whole entry): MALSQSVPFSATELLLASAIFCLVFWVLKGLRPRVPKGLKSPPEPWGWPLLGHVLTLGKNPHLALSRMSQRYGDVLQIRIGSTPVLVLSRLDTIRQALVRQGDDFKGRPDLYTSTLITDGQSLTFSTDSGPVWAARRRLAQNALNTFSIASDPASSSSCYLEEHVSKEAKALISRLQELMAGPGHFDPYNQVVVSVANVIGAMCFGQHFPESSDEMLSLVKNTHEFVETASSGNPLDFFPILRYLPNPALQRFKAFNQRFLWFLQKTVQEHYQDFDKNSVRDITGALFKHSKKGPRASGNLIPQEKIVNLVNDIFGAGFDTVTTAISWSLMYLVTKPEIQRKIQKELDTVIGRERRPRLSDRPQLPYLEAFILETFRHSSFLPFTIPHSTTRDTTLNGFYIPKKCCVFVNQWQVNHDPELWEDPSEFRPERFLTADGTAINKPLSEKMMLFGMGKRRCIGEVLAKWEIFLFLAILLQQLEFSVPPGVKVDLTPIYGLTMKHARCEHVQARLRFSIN

CYP1A2 [12] = conditions: cited from earlier work
CYP2B6 [13] = conditions: cited from earlier work
CYP3A4/5 [14] = conditions: cited from earlier work; remark: listed apart in the source
[15] = biological target: organic cation transporter (OCT) 1 (Homo sapiens, UniProt O15245); conditions: cited from earlier work
Sequence of organic cation transporter (OCT) 1 (O15245 whole entry): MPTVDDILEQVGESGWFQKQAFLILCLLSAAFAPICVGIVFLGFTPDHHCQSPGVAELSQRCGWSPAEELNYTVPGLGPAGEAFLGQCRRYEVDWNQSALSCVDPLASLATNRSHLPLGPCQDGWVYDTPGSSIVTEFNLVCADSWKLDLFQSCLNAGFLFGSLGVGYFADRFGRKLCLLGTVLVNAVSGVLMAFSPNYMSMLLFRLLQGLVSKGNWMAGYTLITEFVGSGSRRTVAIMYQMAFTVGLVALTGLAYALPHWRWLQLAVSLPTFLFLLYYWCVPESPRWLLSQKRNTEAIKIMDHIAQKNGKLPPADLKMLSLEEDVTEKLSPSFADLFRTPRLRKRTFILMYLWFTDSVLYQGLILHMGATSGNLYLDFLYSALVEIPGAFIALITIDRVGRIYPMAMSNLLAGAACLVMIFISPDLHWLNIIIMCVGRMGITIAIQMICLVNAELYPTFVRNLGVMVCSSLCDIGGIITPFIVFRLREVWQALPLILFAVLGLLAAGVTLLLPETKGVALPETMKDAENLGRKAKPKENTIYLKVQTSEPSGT

OCT2 = OCT2 (Homo sapiens, UniProt O15244); conditions: cited from earlier work
Sequence of OCT2 (O15244 whole entry): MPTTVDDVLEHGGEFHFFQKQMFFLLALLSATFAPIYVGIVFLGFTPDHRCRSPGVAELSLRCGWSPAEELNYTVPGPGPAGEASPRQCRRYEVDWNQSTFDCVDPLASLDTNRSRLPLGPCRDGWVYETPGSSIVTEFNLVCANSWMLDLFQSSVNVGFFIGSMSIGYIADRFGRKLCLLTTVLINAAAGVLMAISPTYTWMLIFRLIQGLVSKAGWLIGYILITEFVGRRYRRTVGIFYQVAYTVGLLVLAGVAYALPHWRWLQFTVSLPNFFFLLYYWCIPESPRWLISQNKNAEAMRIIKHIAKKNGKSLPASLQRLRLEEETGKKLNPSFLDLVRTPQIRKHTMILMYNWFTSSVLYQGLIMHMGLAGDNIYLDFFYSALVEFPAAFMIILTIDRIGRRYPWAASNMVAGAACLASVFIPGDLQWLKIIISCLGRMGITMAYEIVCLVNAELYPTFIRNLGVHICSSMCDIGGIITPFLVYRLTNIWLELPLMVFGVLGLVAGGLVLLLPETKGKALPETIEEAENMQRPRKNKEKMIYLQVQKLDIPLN

[16] = biological target: breast cancer resistance protein (BCRP) (Homo sapiens, UniProt Q9UNQ0); conditions: cited from earlier work
Sequence of breast cancer resistance protein (BCRP) (Q9UNQ0 whole entry): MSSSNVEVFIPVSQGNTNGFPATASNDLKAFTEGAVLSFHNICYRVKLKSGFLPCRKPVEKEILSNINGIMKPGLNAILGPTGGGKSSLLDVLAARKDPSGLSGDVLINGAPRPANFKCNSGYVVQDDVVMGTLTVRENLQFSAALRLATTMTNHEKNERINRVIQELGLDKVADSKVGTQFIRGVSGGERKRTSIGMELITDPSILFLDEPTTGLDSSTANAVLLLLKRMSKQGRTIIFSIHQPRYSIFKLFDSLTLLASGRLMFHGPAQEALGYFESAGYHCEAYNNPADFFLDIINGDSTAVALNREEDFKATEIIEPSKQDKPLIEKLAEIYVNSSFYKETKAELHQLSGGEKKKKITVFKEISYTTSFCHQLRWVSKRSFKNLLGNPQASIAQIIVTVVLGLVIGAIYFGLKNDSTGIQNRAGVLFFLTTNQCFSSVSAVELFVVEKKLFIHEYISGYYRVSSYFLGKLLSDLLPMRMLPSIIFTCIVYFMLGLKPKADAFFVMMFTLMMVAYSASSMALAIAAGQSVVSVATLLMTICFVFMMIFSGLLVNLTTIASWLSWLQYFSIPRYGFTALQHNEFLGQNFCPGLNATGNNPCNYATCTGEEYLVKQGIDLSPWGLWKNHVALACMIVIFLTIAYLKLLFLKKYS

solid tumors = conditions: cited from earlier work
[17] = oral administration, various animal species

Nc1nc2cc(-c3ccc4ncc(C(=O)N5CCOCC5)n4c3)ccc2o1 [serabelisib, 6-(2-Aminobenzo[d]oxazol-5-yl) imidazo[1,2-a]pyridine-3-yl morpholino methanone]
drug accumulation between dosing cycles [1]: No meaningful drug accumulation
selectivity over other class I PI3K isoforms [2]: > 50 fold
selectivity over mTOR [3]: > 50 fold
IC50 (PI3Kα): 20 nM
downstream signaling of PI3K [4]: blocks downstream signaling of PI3K
antiproliferative activity (a range of cell lines): demonstrates antiproliferative activity
tumor growth inhibition [5]: strong tumor growth inhibition
efficacy on xenograft [6]: no efficacy
tissue distribution of radiolabeled drug ([7]; following oral dosing): well distributed to all tissues
absorption [7, 17]: rapid absorption
bioavailability [7, 17]: high bioavailable
excretion ([7]; urine and feces): majority of the drug is excreted in urine and feces as the parent compound
unique human metabolite [8]: no unique human metabolite was identified
share of metabolism by CYP3A4 (CYP3A4): 72%
inhibition of CYP3A4/5 (CYP3A4/5 [9]): low potential for inhibition
inhibition of CYP2D6 (CYP2D6): low potential for inhibition
inhibition of CYP2C19 (CYP2C19): low potential for inhibition
inhibition of CYP2C9 (CYP2C9): low potential for inhibition
inhibition of CYP2C8 (CYP2C8): low potential for inhibition
inhibition of CYP2B6 (CYP2B6 [10]): low potential for inhibition
inhibition of CYP1A2 (CYP1A2 [11]): low potential for inhibition
induction of CYP1A2 activity (CYP1A2 [12]): does not induce
induction of CYP2B6 activity (CYP2B6 [13]): does not induce
induction of CYP3A4/5 activity (CYP3A4/5 [14]): does not induce
inhibition of OCT1 [15]: inhibitor
inhibition of OCT2 (OCT2): inhibitor
inhibition of BCRP [16]: inhibitor
subjects with related serious adverse events (SAEs) (solid tumors; 3CDW cohorts): 7%
MTD (solid tumors; Phase 1 study, intermittent 3CDW schedule): 900 mg
related adverse event: decreased appetite (solid tumors; across all doses and regimens): 23%
related adverse event: diarrhea (solid tumors; across all doses and regimens): 31%
related adverse event: hyperglycemia (solid tumors; across all doses and regimens): 37%
related adverse event: increased aspartate aminotransferase (AST) (solid tumors; across all doses and regimens): 20%
related adverse event: nausea (solid tumors; across all doses and regimens): 50%
related adverse event: vomiting (solid tumors; across all doses and regimens): 38%
subjects with gastrointestinal dose-limiting toxicity (DLT) (solid tumors; dose escalated from 900 mg to 1200 mg, 3CDW regimen): 2 of 3
PK profile (solid tumors; human, in vivo): linear PK profile
cases of drug-induced liver injury (DILI) (solid tumors; prior serabelisib clinical trials): no cases of DILI have been reported
doses giving biologically active exposures (solid tumors; results from skin biopsy samples): > 200 mg

From patent US20250082643A1, “COMBINATION THERAPY FOR PIK3CA-ASSOCIATED DISEASES OR DISORDERS” (Faeth Therapeutics, Inc., priority 2021, published 2025)
